Test results taken from patent US12653811B2 (CLOSED LOOP MEDICINE LTD, priority 2020, dated 2026).

What was measured:
[1] = cited from earlier work
[2] = system: patients with primary hypertension and inadequate BP control; experiment: Precision dosing trial of amlodipine with home blood pressure and e-diary side effects (Example 1)

CCOC(=O)C1=C(COCCN)NC(C)=C(C(=O)OC)C1c1ccccc1Cl (stereo not shown) [amlodipine]
dose linearity of pharmacokinetics ([1]; FIG. 1, Williams et al 1988): linear across a wide range of doses
increase in total exposure ([1]; elderly): up to 60%
variance in average amlodipine blood levels between subjects ([1]; steady-state, same dose): up to 30%
toxic related side effects leading to treatment discontinuation ([2]; during the trial to date): no toxic related side effects leading to treatment discontinuation were observed
end mean DBP ([2]; end of study, baseline mean DBP 88 mmHg, 109 patients begun, 39 completed, linear mixed model estimate): 81 mmHg
end mean SBP ([2]; end of study, baseline mean SBP 146 mmHg, 109 patients begun, 39 completed, linear mixed model estimate): 133 mmHg
side effects (oedema) by VAS score ([2]; single patient, final dose of 10 mg, VAS 0-100 scale (1-25 mild, 26-50 moderate)): mild to moderate
